Assay: Example 10 dosimetry, 27 mCRPC patients, planar whole-body conjugate imaging and SPECT/CT, MIRD method
Type: in vivo, human
Experimental: Radiation dosimetry of [^177Lu]Lu-PSMA-I&T was calculated in 27 patients with mCRPC based on biodistribution data from planar whole-body conjugate imaging at 1, 24, 48, 72, and 168 hours and, for 7 of them, SPECT/CT imaging at 48-72 hours post injection of their first cycle of [^177Lu]Lu-PSMA-I&T (6.8±10% GBq).
Regions of interest were drawn on the planar images.
Volumes of interest were constructed on the SPECT and CT
For each subject, kinetic data were modeled to determine
normalized number of disintegrations in organs and tissues, from which the absorbed dose estimates were computed using the MIRD method.

[1] = 27 patients, first cycle, 6.8 GBq, planar imaging
[2] = Bladder Wall, 27 patients, first cycle
[3] = Heart Wall, 27 patients, first cycle
[4] = Kidneys, 27 patients, first cycle
[5] = Lacrimal Glands, 27 patients, first cycle
[6] = Left Colon, 27 patients, first cycle
[7] = Liver, 27 patients, first cycle
[8] = Red Marrow, 27 patients, first cycle
[9] = Salivary Glands, 27 patients, first cycle
[10] = Spleen, 27 patients, first cycle
[11] = Thyroid, 27 patients, first cycle
[12] = cumulative administered activity of 27.2 GBq, four cycles of 6.8 GBq

O=C([O-])CC[C@H](NC(=O)N[C@@H](CCCCNC(=O)CCCCCCC(=O)NCCCC[C@@H](NC(=O)[C@@H](Cc1ccccc1)NC(=O)[C@@H](Cc1ccc(O)c(I)c1)NC(=O)CC[C@H](C(=O)[O-])N1CCN(CC(=O)[O-])CCN(CC(=O)[O-])CCN(CC(=O)[O-])CC1)C(=O)[O-])C(=O)[O-])C(=O)[O-].[177Lu+3].[H+].[H+].[H+].[H+].[H+] [^177Lu-PSMA I&T, (3S,7S,26R,29R,32R,37R)-29-benzyl-32-(4-hydroxy-3-iodobenzyl)-5,13,20,28,31,34-hexaoxo-37-(4,7,10-tris(carboxymethyl)-1,4,7,10-tetraazacyclododecan-1-yl)-4,6,12,21,27,30,33-heptaazaheptatriacontane-1,3,7,26,37-pentacarboxylic acid; lutetium-177 (III)]
absorbed dose, kidneys [1]: 0.73 Gy/GBq | absorbed dose, lacrimal glands [1]: 1.2 Gy/GBq | average dose, red marrow [1]: 0.034 Gy/GBq | average dose, salivary glands [1]: 0.34 Gy/GBq | dose estimate, Max [2]: 0.36 mGy/MBq or Gy/GBq | dose estimate, Mean [2]: 0.33 mGy/MBq or Gy/GBq | dose estimate, Min [2]: 0.14 mGy/MBq or Gy/GBq | Absorbed Dose, Mean (Bladder, SPLASH): 0.33 Gy/GBq | Absorbed Dose, Mean (Bone Marrow, SPLASH): 0.034 Gy/GBq | dose estimate, Max [3]: 0.15 mGy/MBq or Gy/GBq | dose estimate, Mean [3]: 0.036 mGy/MBq or Gy/GBq | dose estimate, Min [3]: 0.017 mGy/MBq or Gy/GBq | dose estimate, Mean (Heart Wall, Splash): 0.04 Gy/GBq | Absorbed Dose, Mean (Heart, SPLASH): 0.036 Gy/GBq | dose estimate, Max [4]: 1.8 mGy/MBq or Gy/GBq | dose estimate, Mean [4]: 0.73 mGy/MBq or Gy/GBq | dose estimate, Min [4]: 0.22 mGy/MBq or Gy/GBq | Absorbed Dose, Mean (Kidneys, Splash): 0.73 Gy/GBq | dose estimate, Mean (Kidneys, Splash): 0.73 Gy/GBq | dose estimate, Max [5]: 6.7 mGy/MBq or Gy/GBq | dose estimate, Mean [5]: 1.2 mGy/MBq or Gy/GBq | dose estimate, Min [5]: 0.38 mGy/MBq or Gy/GBq | Absorbed Dose, Mean (Lacrimal Glands, SPLASH): 1.2 Gy/GBq | dose estimate, Mean (Lacrimal gland, Splash): 1.20 Gy/GBq | dose estimate, Max [6]: 1.5 mGy/MBq or Gy/GBq | dose estimate, Mean [6]: 0.52 mGy/MBq or Gy/GBq | dose estimate, Min [6]: 0.013 mGy/MBq or Gy/GBq | Absorbed Dose, Mean (Left colon, Splash): 0.52 Gy/GBq | dose estimate, Mean (Left colon, Splash): 0.52 Gy/GBq | dose estimate, Max [7]: 0.24 mGy/MBq or Gy/GBq | dose estimate, Mean [7]: 0.051 mGy/MBq or Gy/GBq | dose estimate, Min [7]: 0.025 mGy/MBq or Gy/GBq | Absorbed Dose, Mean (Liver, Splash): 0.051 Gy/GBq | dose estimate, Mean (Liver, Splash): 0.051 Gy/GBq | dose estimate, Max [8]: 0.11 mGy/MBq or Gy/GBq | dose estimate, Mean [8]: 0.034 mGy/MBq or Gy/GBq | dose estimate, Min [8]: 0.014 mGy/MBq or Gy/GBq | dose estimate, Mean (Red Marrow, Splash): 0.03 Gy/GBq | dose estimate, Max [9]: 1.5 mGy/MBq or Gy/GBq | dose estimate, Mean [9]: 0.34 mGy/MBq or Gy/GBq | dose estimate, Min [9]: 0.14 mGy/MBq or Gy/GBq | Absorbed Dose, Mean (Salivary glands, Splash): 0.34 Gy/GBq | dose estimate, Mean (Salivary glands, Splash): 0.34 Gy/GBq | dose estimate, Max [10]: 0.80 mGy/MBq or Gy/GBq | dose estimate, Mean [10]: 0.16 mGy/MBq or Gy/GBq | dose estimate, Min [10]: 0.022 mGy/MBq or Gy/GBq | Absorbed Dose, Mean (Spleen, Splash): 0.16 Gy/GBq | dose estimate, Mean (Spleen, Splash): 0.16 Gy/GBq | dose estimate, Max [11]: 0.77 mGy/MBq or Gy/GBq | dose estimate, Mean [11]: 0.17 mGy/MBq or Gy/GBq | dose estimate, Min [11]: 0.011 mGy/MBq or Gy/GBq | Absorbed Dose, Mean (Thyroid, Splash): 0.17 Gy/GBq | dose estimate, Mean (Thyroid, Splash): 0.17 Gy/GBq | dose estimate, Mean (Urinary bladder wall, Splash): 0.33 Gy/GBq | cumulative absorbed dose, kidneys [12]: 19.9 Gy | cumulative absorbed dose, red marrow [12]: 0.91 Gy

Reference: patent US20250041461A1, “[177LU] LUTETIUM-PSMA I&T COMPOSITION AND DOSIMETRY, KIT, METHOD OF MAKING, AND METHOD OF USING THEREOF” (Curium US LLC, priority 2023, published 2025)
